According to PubChem BioAssay AID2060513 (Molecular Pharmacology Branch, DTP, NCI, 2025):

System: 299254-011-R-J1-PDC complex spheroids viability
Assay: Anticancer human tumor 299254-011-R-J1-PDC patient-derived melanoma cell line growth inhibition [GQUAD]
Settings: for IC50: curve of first compound; for viability, T/C: stronger effect = lower value; active means viability on the fitted dose curve at most 10% of control; inactive means the rest
Procedure, shortened: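 Multi-cell-type spheroids of tumor cells with HUVEC and mesenchymal stem cells, treated with drug combinations. Concentrations descend in half-log steps from near clinical Cmax, or from 10 microM where Cmax is unknown; viability read-out.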

[1] = second compound 0.0316 µM, first compound 0.0316 µM
[2] = second compound 0.0316 µM, first compound 0.1 µM
[3] = second compound 0.0316 µM, first compound 0.316 µM
[4] = second compound 0.0316 µM, first compound 1 µM
[5] = second compound 0.0316 µM, first compound 3.16 µM
[6] = second compound 0.0316 µM, first compound 10 µM
[7] = second compound 0.1 µM, first compound 0.0316 µM
[8] = second compound 0.1 µM, first compound 0.1 µM
[9] = second compound 0.1 µM, first compound 0.316 µM
[10] = second compound 0.1 µM, first compound 1 µM
[11] = second compound 0.1 µM, first compound 3.16 µM
[12] = second compound 0.1 µM, first compound 10 µM
[13] = second compound 0.316 µM, first compound 0.0316 µM
[14] = second compound 0.316 µM, first compound 0.1 µM
[15] = second compound 0.316 µM, first compound 0.316 µM
[16] = second compound 0.316 µM, first compound 1 µM
[17] = second compound 0.316 µM, first compound 3.16 µM
[18] = second compound 0.316 µM, first compound 10 µM
[19] = second compound 1 µM, first compound 0.0316 µM
[20] = second compound 1 µM, first compound 0.1 µM
[21] = second compound 1 µM, first compound 0.316 µM
[22] = second compound 1 µM, first compound 1 µM
[23] = second compound 1 µM, first compound 3.16 µM
[24] = second compound 1 µM, first compound 10 µM
[25] = second compound 3.16 µM, first compound 0.0316 µM
[26] = second compound 3.16 µM, first compound 0.1 µM
[27] = second compound 3.16 µM, first compound 0.316 µM
[28] = second compound 3.16 µM, first compound 1 µM
[29] = second compound 3.16 µM, first compound 3.16 µM
[30] = second compound 3.16 µM, first compound 10 µM
[31] = second compound 10 µM, first compound 0.0316 µM
[32] = second compound 10 µM, first compound 0.1 µM
[33] = second compound 10 µM, first compound 0.316 µM
[34] = second compound 10 µM, first compound 1 µM
[35] = second compound 10 µM, first compound 3.16 µM
[36] = second compound 10 µM, first compound 10 µM
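Further: spheroids exposed to the agents for seven days before readout.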
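Wherever viability, T/C is given: percent viability relative to DMSO vehicle control wells = 100%.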

C=CCn1c(=O)c2cnc(Nc3ccc(N4CCN(C)CC4)cc3)nc2n1-c1cccc(C(C)(C)O)n1 + Cc1[nH]c2ccc(F)cc2c1-c1nc2c3cccnc3c3ncccc3c2[nH]1
1.56 µM: IC50 (second compound 3.16 µM)
1.46 µM: IC50 (second compound 0.1 µM)
0.929 µM: IC50 (second compound 10 µM)
1.96 µM: IC50 (second compound 0.0316 µM)
2.07 µM: IC50 (second compound 1 µM)
2.12 µM: IC50 (second compound 0.316 µM)
inactive: viability, T/C [1] 95.6% | viability, T/C [2] 101% | viability, T/C [3] 101% | viability, T/C [4] 69.8% | viability, T/C [5] 37.3% | viability, T/C [6] 29.8% | viability, T/C [7] 117% | viability, T/C [8] 112% | viability, T/C [9] 115% | viability, T/C [10] 59.2% | viability, T/C [11] 33.2% | viability, T/C [12] 29.2% | viability, T/C [13] 108% | viability, T/C [14] 108% | viability, T/C [15] 94% | viability, T/C [16] 70.4% | viability, T/C [17] 39.1% | viability, T/C [18] 25% | viability, T/C [19] 109% | viability, T/C [20] 92.7% | viability, T/C [21] 92.9% | viability, T/C [22] 66.2% | viability, T/C [23] 39.4% | viability, T/C [24] 23.6% | viability, T/C [25] 86.1% | viability, T/C [26] 91% | viability, T/C [27] 102% | viability, T/C [28] 62.3% | viability, T/C [29] 33% | viability, T/C [30] 27.8% | viability, T/C [31] 94.4% | viability, T/C [32] 81.9% | viability, T/C [33] 85.9% | viability, T/C [34] 46.9% | viability, T/C [35] 26.4% | viability, T/C [36] 19.4%

CC(C)(O)C1CCC(Nc2ccc3ncc(-c4cccc(C(F)(F)F)c4)n3n2)CC1 (centres undefined) + Cc1[nH]c2ccc(F)cc2c1-c1nc2c3cccnc3c3ncccc3c2[nH]1
2.55 µM: IC50 (second compound 10 µM)
> 10 µM: IC50 (second compound 0.0316 µM) | IC50 (second compound 0.1 µM) | IC50 (second compound 0.316 µM) | IC50 (second compound 1 µM) | IC50 (second compound 3.16 µM)
inactive: viability, T/C [1] 112% | viability, T/C [2] 109% | viability, T/C [3] 124% | viability, T/C [4] 97.2% | viability, T/C [5] 70.1% | viability, T/C [6] 111% | viability, T/C [7] 115% | viability, T/C [8] 98.2% | viability, T/C [9] 93.5% | viability, T/C [10] 103% | viability, T/C [11] 73.4% | viability, T/C [12] 111% | viability, T/C [13] 108% | viability, T/C [14] 117% | viability, T/C [15] 115% | viability, T/C [16] 109% | viability, T/C [17] 82.7% | viability, T/C [18] 99.4% | viability, T/C [19] 85.2% | viability, T/C [20] 109% | viability, T/C [21] 110% | viability, T/C [22] 104% | viability, T/C [23] 68.2% | viability, T/C [24] 105% | viability, T/C [25] 93% | viability, T/C [26] 102% | viability, T/C [27] 97% | viability, T/C [28] 88% | viability, T/C [29] 51% | viability, T/C [30] 65.3% | viability, T/C [31] 105% | viability, T/C [32] 95.9% | viability, T/C [33] 103% | viability, T/C [34] 88% | viability, T/C [35] 35.1% | viability, T/C [36] 47.6%
